# Data published in patent US20220401352A1, “A COSMETIC COMPOSITION” (Conopco, Inc., d/b/a UNILEVER, priority 2019, published 2022).
# Structures can show the parent of a compound that is named as a salt.
# Experiments:
# interleukin (IL)-6 = assay: Human immune cell line THP-1 in vitro assay: IL-6 in supernatant by ELISA after co-treatment with LPS; type: cell-based; conditions: PMA-differentiated THP1-XBlue cells co-treated with E. coli LPS and composition, 24 hours; percentage to LPS-treated cells (=100%)
# Procedure: (§1) Human Immune Cell Line THP-1 Invitro Assay The following procedure was used to determine the anti-inflammation efficacy: THP1-XBlue™ (Cat No: thpx-sp, InvivoGen) cells were cultured as suspense in RPMI 1640 medium supplemented with 10% FBS, penicillin (10 U/mL)-streptomycin (10 μg/ML). Cells were differentiated in 24-well plates at the density of 5×10^5 cells/well with 100 nM PMA for 72 hours. Cells were then co-treated with pure E. coli ipopolysaccharides (LPS) and various compositions. After 24 hours, the supernatants were collected and measured for interleukin (IL)-6 as a pro-inflammatory biomarker using enzyme-linked immunosorbent assay (ELISA). IL-6 is a cytokine, or cell-signaling protein, encoded in humans by the IL-6 gene which is both pro-inflammatory and anti-inflammatory and which stimulates the immune response to inflammation. Expression of IL-6 was calculated as the percentage to LPS-treated cells which was designated as 100%. It can be considered as no anti-inflammatory effect if the calculated result is over 100%. Cell viability was calculated as the percentage to non-treated cells which was designated as 100%. P value was analyzed by Student's t-test comparing combination groups and individual compound groups (expression of IL-6).
# THP1-XBlue cells = assay: Cell viability in the THP-1 in vitro assay; type: cell-based, human; conditions: PMA-differentiated THP1-XBlue cells co-treated with LPS and composition, 24 hours; percentage to non-treated cells (=100%)
# Procedure: as §1, with “The” for “Human Immune Cell Line THP-1 Invitro Assay The”, “IL-6). P value <0.05 indicates synergistic effect.” for “IL-6).”
Compound,expression of IL-6 (%) (interleukin (IL)-6),Cell Viability (%) (THP1-XBlue cells)
"OCc1ccccc1O[C@@H]1O[C@H](CO)[C@@H](O)[C@H](O)[C@H]1O [C, salicin]",65.0,86
"Cc1cc(CC(C)CC(C)(C)C)n(O)c(=O)c1 (stereo not shown) [B, 1-hydroxy-4-methyl-6-(2,4,4-trimethylpentyl)-2(1H) pyridinone monoethanolamine salt]",76.4,81
